Reference: patent US20070141141A1, “Pharmaceutical composition” (ASTRAZENECA AB, priority 2003, published 2007)
Values belong to the molecule of their own block, whether it stands above or below them.

Tests used:
[1] = pH shift dissolution test (pH 1.5 to 6.5); format: physicochemical; conditions: for % Agent in Solution t = 2 mins: 2 minutes after adjustment of medium from pH 1.5 to pH 6.5, 37° C.; for % Agent in Solution t = 30 mins: 30 minutes after adjustment of medium from pH 1.5 to pH 6.5, 37° C.; for % Agent in Solution t = 60 mins: 60 minutes after adjustment of medium from pH 1.5 to pH 6.5, 37° C.; for % Agent in Solution t = 0 (˜pH 1.5): % by weight dissolved after 60 minutes in 0.07N HCl/0.2% NaCl medium, 37° C., before pH shift, >100% from HPLC experimental error; for Mean pH of medium at 60 minutes after pH adjustment (n = 2): pH shift test, 60 minutes after adjustment from pH 1.5 to pH 6.5
Experimental: The vial was then rinsed with a further 50 ml of fresh dissolution medium and the washings added to the main dissolution medium to ensure complete transfer of the composition (total volume of medium 500 ml). The Control sample was weighed into a volumetric flask and pre-dissolved in 50 ml of dissolution medium via sonication. The composition was then added to 400 ml of dissolution medium. The flask was rinsed with a further 50 ml of fresh dissolution medium and the washings added to the main dissolution medium to ensure complete transfer of the composition (total volume of medium=500 ml). After 60 minutes at 37° C. (paddle speed 100 rpm) a sample (5 ml) was taken and 5 ml of fresh medium was added to retain a constant volume of dissolution medium.
The resulting solution was then made up to 100 ml with MilliQ water.
Samples (5 ml) were then removed with a plastic syringe at 2, 5, 15, 30, 45 and 60 minutes after pH adjustment and fresh medium (pH 6.5) added to maintain a constant volume of dissolution medium. […] ODS-3^1. (with guard) • detection wavelength: 247 nm • flow rate: 0.9 ml/min • injection volume: 20 μl • retention time: approximately 6 minutes
Footnote: column ex Hichrom containing 3 μm beads.

[2] = tested on: non-small-cell lung cancer; conditions: 250 mg/day, non-small-cell lung cancer patients, IDEAL 1 and 2; cited from earlier work
[3] = pKa and pH dependent aqueous solubility of the Agent; format: physicochemical
pH 6.5 dissolution test = format: physicochemical; conditions: for % Agent in solution after 5 minutes in pH 6.5 medium / % Agent in solution after 30 minutes in pH 6.5 medium / % Agent in solution after 60 minutes in pH 6.5 medium: 37° C., 500 ml, 250 mg Agent; for Mean pH of medium at 60 minutes (n = 2) / Mean pH of medium at end of experiment (n = 2): pH 6.5 dissolution test; for Mean pH of medium at end of experiment (n = 2): final pH measured after 60 minutes
Experimental: The following test measures dissolution of a composition in a pH 6.5 dissolution medium and simulates the pH environment found in the upper intestine.
The composition to be tested was placed into a 500 ml of a stirred dissolution medium at pH 6.5 at 37° C. (paddle speed 100 rpm). […] A fresh sample of dissolution medium was added after every sampling time point to maintain a constant volume of 500 ml dissolution medium throughout the test.
The vial was then rinsed with a further 50 ml of fresh dissolution medium and the washings added to the main dissolution medium to ensure complete transfer of the composition (total volume of dissolution medium=500 ml).

% Agent in Solution t = 2 mins ([1]; listed as Control): 6.50%
% Agent in Solution t = 30 mins ([1]; listed as Control): 3.04%
% Agent in Solution t = 60 mins ([1]; listed as Control): 2.27%
% Agent in Solution t = 0 (˜pH 1.5) ([1]; listed as Control): 102.61%
Mean pH of medium at 60 minutes after pH adjustment (n = 2) ([1]; listed as Control): 6.55
Solubility (in words) ([3]; free-base form, above pH 7): practically insoluble
Solubility (in words) ([3]; free-base form, pH 1): soluble
Solubility: aqueous solvent required to dissolve 1 g of Agent ([3]; free-base form, pH 6): ≥ 10000 mL
pKa ([3]; two basic groups): ~5.3
% Agent in solution after 5 minutes in pH 6.5 medium (pH 6.5 dissolution test; listed as Control): 0.70%
% Agent in solution after 30 minutes in pH 6.5 medium (pH 6.5 dissolution test; listed as Control): 1.52%
% Agent in solution after 60 minutes in pH 6.5 medium (pH 6.5 dissolution test; listed as Control): 1.40%
Mean pH of medium at 60 minutes (n = 2) (pH 6.5 dissolution test; listed as Control): 6.52
Mean pH of medium at end of experiment (n = 2) (pH 6.5 dissolution test; listed as Control): 6.52
SMILES: COc1cc2ncnc(Nc3ccc(F)c(Cl)c3)c2cc1OCCCN1CCOCC1 [Agent, 4-(3′-chloro4′-fluoroanilino)-7-methoxy-6-(3-morpholinopropoxy)quinazoline]
adverse events [2]: majority of adverse events generally being mild to moderate skin and gastrointestinal disorders
response rates [2]: 11.8-18.4%

% Agent in Solution t = 2 mins [1]: 19.56%
% Agent in Solution t = 30 mins [1]: 5.16%
% Agent in Solution t = 60 mins [1]: 3.30%
% Agent in Solution t = 0 (˜pH 1.5) [1]: 97.74%
Mean pH of medium at 60 minutes after pH adjustment (n = 2) [1]: 6.32
% Agent in solution after 5 minutes in pH 6.5 medium (pH 6.5 dissolution test): 3.52%
% Agent in solution after 30 minutes in pH 6.5 medium (pH 6.5 dissolution test): 1.54%
% Agent in solution after 60 minutes in pH 6.5 medium (pH 6.5 dissolution test): 1.21%
% Agent in solution after 60 minutes in pH 6.5 medium (pH 6.5 dissolution test; listed as Comparative Example 4): 1.21%
Mean pH of medium at 60 minutes (n = 2) (pH 6.5 dissolution test): 6.33
Mean pH of medium at end of experiment (n = 2) (pH 6.5 dissolution test): 6.33
SMILES: COc1cc2ncnc(Nc3ccc(F)c(Cl)c3)c2cc1OCCCN1CCOCC1 [Comparative 4, 4-(3′-chloro4′-fluoroanilino)-7-methoxy-6-(3-morpholinopropoxy)quinazoline]
